Values quoted from earlier work as cited in patent US20250345332A1, “APROCITENTAN FOR THE TREATMENT OF HYPERTENSION” (IDORSIA PHARMACEUTICALS LTD, priority 2022, published 2025).

Assays:
[1] = tested on: patients with type 2 diabetes and overt diabetic nephropathy; conditions: in vivo; cited from earlier work
[2] = tested on: patients with rHT; conditions: cited from earlier work
[3] = tested on: subjects having essential hypertension; conditions: lisinopril 20 mg, cited from earlier work
[4] = tested on: subjects having essential hypertension; conditions: after 8 weeks once daily, at trough, aprocitentan 5, 10, 25, 50 mg groups, lisinopril 20 mg, cited from earlier work

SMILES: COc1ccccc1Oc1c(NS(=O)(=O)c2ccc(C)cn2)nc(-c2ccncc2)nc1OC [Avosentan, avosentan]
- albumin-to-creatinine ratio (ACR) [1]: significantly reduced

SMILES: COc1cc(OC)nc(O[C@H](C(=O)O)C(OC)(c2ccccc2)c2ccccc2)n1 [darusentan]
- reduction of ambulatory blood pressure ([2]; 14 weeks): demonstrated efficacy
- treatment effect on the primary endpoint systolic blood pressure ([2]; 14 weeks): failed to show significant treatment effect
- fluid retention/edema (most frequent adverse event) ([2]; versus 12% in each of the other groups): 28%

SMILES: NCCCC[C@H](N[C@@H](CCc1ccccc1)C(=O)O)C(=O)N1CCC[C@H]1C(=O)O [lisinopril, reference compound]
- discontinuation from study treatment due to an adverse event ([3]; aprocitentan 5-50 mg groups): 3.7%
- mean body weight decrease from baseline [3]: 0.3 kg
- mean reduction from baseline in diastolic blood pressure ([4]; per-protocol population): 8.4 mmHg
- systolic blood pressure reductions [4]: 12.8 mmHg
